Laboratory results reported in US20240246946A1, “MODULATORS OF TREX1” (Constellation Pharmaceuticals, Inc., priority 2021, published 2024).

Columns and labels:
[1] = biological target: T1, full length mouse TREX1 (Mus musculus, UniProt Q91XB0); assay: mTREX1 Biochemical Assay (fluorescence, dsDNA substrate degradation); settings: biochemical, read-out: mTREX1 IC50
T1 construct: N-terminally His-Tev tagged full length mouse TREX1; made in house; host or cells: E. coli
T1 sequence (Q91XB0 1-314): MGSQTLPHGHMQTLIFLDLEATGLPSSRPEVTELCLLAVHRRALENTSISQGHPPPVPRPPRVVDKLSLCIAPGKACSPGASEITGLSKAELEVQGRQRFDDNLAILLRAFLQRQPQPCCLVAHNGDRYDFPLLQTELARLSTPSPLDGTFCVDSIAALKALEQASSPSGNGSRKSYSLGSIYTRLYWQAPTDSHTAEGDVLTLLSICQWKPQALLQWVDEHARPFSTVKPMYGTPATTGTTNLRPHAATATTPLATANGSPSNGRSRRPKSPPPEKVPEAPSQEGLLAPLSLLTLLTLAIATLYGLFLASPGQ
How it was run: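 Reaction run 18 h at 25° C. with 60 nM TEX615/quencher-labelled dsDNA and 6 pM mouse TREX1 in Tris buffer (pH 7.4, 5 mM MgCl2, 1.0% DMSO), enzyme having sat 4 h with compound across 10 concentrations. EDTA quench; substrate degradation measured as fluorescence increase.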

[2] = biological target: T2, full length human TREX1 (Homo sapiens, UniProt Q9NSU2); assay: hTREX1 Biochemical Assay (fluorescence, dsDNA substrate degradation); settings: biochemical, read-out: hTREX1 IC50
T2 construct: N-terminally His-Tev tagged full length human TREX1; made in house; host or cells: E. coli
T2 sequence (Q9NSU2 1-314): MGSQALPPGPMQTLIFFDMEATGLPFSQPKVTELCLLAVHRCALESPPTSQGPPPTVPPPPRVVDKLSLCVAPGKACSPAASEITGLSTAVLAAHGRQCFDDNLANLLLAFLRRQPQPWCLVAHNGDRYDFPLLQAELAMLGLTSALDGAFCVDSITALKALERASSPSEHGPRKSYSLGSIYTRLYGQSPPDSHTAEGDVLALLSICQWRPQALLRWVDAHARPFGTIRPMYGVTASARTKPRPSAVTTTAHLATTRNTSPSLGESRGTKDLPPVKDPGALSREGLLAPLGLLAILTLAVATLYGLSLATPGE
How it was run: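 Fluorescence rises as enzyme degrades a quenched TEX615-labelled dsDNA substrate (60 nM) in 50 mM Tris, 150 mM NaCl, 5 mM MgCl2, pH 7.4. Full-length His-Tev-tagged human TREX1, 4 pM, sits with compound 4 hours at 25° C before substrate; reaction 18 hours, stopped with EDTA.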

[3] = biological target: T3, human TREX2 (residues M44-A279) (Homo sapiens, UniProt Q9BQ50); assay: hTREX2 Biochemical Assay (fluorescence, dsDNA substrate degradation); settings: biochemical selectivity for hTREX1 vs hTREX2
T3 construct: human TREX2 (residues M44-A279, expressed in E. coli); made in house; host or cells: E. coli
T3 sequence (Q9BQ50 44-279 isoform Q9BQ50-1): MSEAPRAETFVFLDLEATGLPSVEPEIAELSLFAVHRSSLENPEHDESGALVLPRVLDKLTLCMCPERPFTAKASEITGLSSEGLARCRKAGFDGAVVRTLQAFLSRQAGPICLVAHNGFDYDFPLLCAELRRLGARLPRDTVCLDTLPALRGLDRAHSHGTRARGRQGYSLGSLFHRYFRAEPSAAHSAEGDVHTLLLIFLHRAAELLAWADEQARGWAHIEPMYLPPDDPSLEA
Experimental: Degradation of the dsDNA liberates free fluorophore to produce a fluorescent signal. Specifically, 7.5 μL of N-terminally His-Tev tagged human TREX2 (residues M44-A279, expressed in E. coli and purified in house) in reaction buffer (50 mM Tris, 150 mM NaCl, 2 mM DTT, 0.1 mg/mL BSA, 0.01% (w/v) Tween-20, 5 mM MgCl2, pH 7.4) was added to a 384-well Black ProxiPlate Plus (PerkinElmer) which already contained compound (150 nL) at varying concentrations as a 10 point dose-response in DMSO. The plate was incubated at 25° C. for 4 hours. Reactions were initiated by adding 7.5 μL of dsDNA substrate (Strand A: 5′ TEX615/GCT AGG CAG 3′; Strand B: 5′ CTG CCT AGC/IAbRQSp (IDT)) in reaction buffer. Final concentrations were 50 pM TREX2, 60 nM dsDNA substrate in reaction buffer with 1.0% DMSO (v/v). After 18 hours at 25° C., reactions were quenched by the addition of 2 μL of 500 mM EDTA. Final concentrations in the quenched reaction mixture were 44 pM TREX2, 53 nM DNA and 59 mM EDTA in a volume of 17 μL. After a 5-minute incubation at room temperature, plates were read in an EnVision plate reader (PerkinElmer) measuring fluorescence at 615 nm following excitation w/570 nm light.

## CC(c1nc(C(=O)Nc2cnoc2)c(O)c(=O)n1C)C(c1ccccc1C#N)c1ccnn1C (single isomer, unassigned) [Example 1 D1E2]
[1]
  IC50: > 10 nM
[2]
  IC50: > 10 nM
[3]
  hTREX1 vs hTREX2 selectivity: A (A = <25 fold selective for hTREX1)

## CC(c1nc(C(=O)Nc2cnoc2)c(O)c(=O)n1C)C(c1ccccc1C#N)c1ccnn1C (single isomer, unassigned) [Example 1 D2E2]
[1]
  IC50: > 10 nM
[2]
  IC50: > 10 nM
[3]
  hTREX1 vs hTREX2 selectivity: B (B = 25 to 50-fold selective for hTREX1)

## Cc1ccc(C(c2ccccc2C#N)C(C)c2nc(C(=O)Nc3cnoc3)c(O)c(=O)n2C)cn1 (single isomer, unassigned) [Example 5 D2E1]
[1]
  IC50: > 10 nM
[2]
  IC50: > 10 nM
[3]
  hTREX1 vs hTREX2 selectivity: B (B = 25 to 50-fold selective for hTREX1)

## CC(c1nc(C(=O)Nc2cnoc2)c(O)c(=O)n1C)C(c1cnn(C)c1)c1cccnc1C#N (single isomer, unassigned) [Example 7 D2E2]
[1]
  IC50: > 10 nM
[2]
  IC50: > 10 nM
[3]
  hTREX1 vs hTREX2 selectivity: B (B = 25 to 50-fold selective for hTREX1)

## CC(c1nc(C(=O)Nc2cnoc2)c(O)c(=O)n1C)C(c1cnn(C)c1)c1ccc(C(=O)N(C)C)cc1C#N (single isomer, unassigned) [Example 11 D1E2]
[1]
  IC50: > 10 nM
[2]
  IC50: > 10 nM
[3]
  hTREX1 vs hTREX2 selectivity: B (B = 25 to 50-fold selective for hTREX1)

## COCCn1cc(C(c2ccccc2C#N)C(C)c2nc(C(=O)Nc3cnoc3)c(O)c(=O)n2C)c(C)n1 (single isomer, unassigned) [Example 71 D1E2]
[1]
  IC50: > 10 nM
[2]
  IC50: > 10 nM

## COCCn1cc(C(c2ccccc2C#N)C(C)c2nc(C(=O)Nc3cnoc3)c(O)c(=O)n2C)c(C)n1 (single isomer, unassigned) [Example 71 D2E1]
[1]
  IC50: > 10 nM
[2]
  IC50: > 10 nM

## COCCn1cc(C(c2ccccc2C#N)C(C)c2nc(C(=O)Nc3cnoc3)c(O)c(=O)n2C)c(C)n1 (single isomer, unassigned) [Example 71 D2E2]
[1]
  IC50: > 10 nM
[2]
  IC50: > 10 nM

## CCn1cc(C(c2cc(F)c(F)cc2Cl)C(C)c2nc(C(=O)Nc3cnoc3)c(O)c(=O)n2C)cn1 (single isomer, unassigned) [Example 72 D1E1]
[1]
  IC50: 1 to 10 nM
[2]
  IC50: < 1 nM

## CCn1cc(C(c2cc(F)c(F)cc2Cl)C(C)c2nc(C(=O)Nc3cnoc3)c(O)c(=O)n2C)cn1 (single isomer, unassigned) [Example 72 D1E2]
[1]
  IC50: > 10 nM
[2]
  IC50: > 10 nM

## CCn1cc(C(c2cc(F)c(F)cc2Cl)C(C)c2nc(C(=O)Nc3cnoc3)c(O)c(=O)n2C)cn1 (single isomer, unassigned) [Example 72 D2E1]
[1]
  IC50: > 10 nM
[2]
  IC50: > 10 nM

## CCn1cc(C(c2cc(F)c(F)cc2Cl)C(C)c2nc(C(=O)Nc3cnoc3)c(O)c(=O)n2C)cn1 (single isomer, unassigned) [Example 72 D2E2]
[1]
  IC50: > 10 nM
[2]
  IC50: > 10 nM

## COCCn1cc(C(c2cc(F)c(F)cc2Cl)C(C)c2nc(C(=O)Nc3cnoc3)c(O)c(=O)n2C)cn1 (single isomer, unassigned) [Example 73 D1E2]
[1]
  IC50: > 10 nM
[2]
  IC50: > 10 nM

## COCCn1cc(C(c2cc(F)c(F)cc2Cl)C(C)c2nc(C(=O)Nc3cnoc3)c(O)c(=O)n2C)cn1 (single isomer, unassigned) [Example 73 D2E1]
[1]
  IC50: > 10 nM
[2]
  IC50: > 10 nM

## COCCn1cc(C(c2cc(F)c(F)cc2Cl)C(C)c2nc(C(=O)Nc3cnoc3)c(O)c(=O)n2C)cn1 (single isomer, unassigned) [Example 73 D2E2]
[1]
  IC50: > 10 nM
[2]
  IC50: > 10 nM

## Cc1nn(C)c(C)c1C(c1ccccc1C#N)C(C)c1nc(C(=O)Nc2cnoc2)c(O)c(=O)n1C (single isomer, unassigned) [Example 78 D2E2]
[1]
  IC50: > 10 nM
[2]
  IC50: > 10 nM

## CC(c1nc(C(=O)Nc2cnoc2)c(O)c(=O)n1C)C(c1cnn(C)c1)c1ccc(O)cc1C#N (single isomer, unassigned) [Example 80 D2E1]
[1]
  IC50: > 10 nM
[2]
  IC50: > 10 nM

## Cc1cnn(C)c1C(c1ccccc1C#N)C(C)c1nc(C(=O)Nc2cnoc2)c(O)c(=O)n1C (single isomer, unassigned) [Example 84 D1E2]
[1]
  IC50: > 10 nM
[2]
  IC50: > 10 nM

## CC(c1nc(C(=O)Nc2cnoc2)c(O)c(=O)n1C)C(c1cnn(C2COC2)c1)c1ccccc1C#N (single isomer, unassigned) [Example 106 D2E2]
[1]
  IC50: > 10 nM
[2]
  IC50: > 10 nM

## Cc1cc(C(c2cc(F)ccc2C#N)C(C)c2nc(C(=O)Nc3cnoc3)c(O)c(=O)n2C)n(C)n1 (single isomer, unassigned) [Example 111 D1E1]
[1]
  IC50: > 10 nM
[2]
  IC50: > 10 nM

## Cc1cc(C(c2cc(F)ccc2Cl)C(C)c2nc(C(=O)Nc3cnoc3)c(O)c(=O)n2C)n(C)n1 (single isomer, unassigned) [Example 113 D2E2]
[1]
  IC50: > 10 nM
[2]
  IC50: > 10 nM

## Cc1cnc(C(c2cc(F)ccc2C#N)C(C)c2nc(C(=O)Nc3cnoc3)c(O)c(=O)n2C)cn1 (single isomer, unassigned) [Example 115 D2E1]
[1]
  IC50: > 10 nM
[2]
  IC50: > 10 nM

## Cc1cnc(C(c2ccccc2Cl)C(C)c2nc(C(=O)Nc3cnoc3)c(O)c(=O)n2C)cn1 (single isomer, unassigned) [Example 116 D2E2]
[1]
  IC50: > 10 nM
[2]
  IC50: > 10 nM

## Cc1cnc(C)c(C(c2ccccc2Cl)C(C)c2nc(C(=O)Nc3cnoc3)c(O)c(=O)n2C)n1 (single isomer, unassigned) [Example 120 D2E1]
[1]
  IC50: > 10 nM
[2]
  IC50: > 10 nM

## Cc1cnc(C)c(C(c2cc(F)ccc2Cl)C(C)c2nc(C(=O)Nc3cnoc3)c(O)c(=O)n2C)n1 (single isomer, unassigned) [Example 121 D2E2]
[1]
  IC50: > 10 nM
[2]
  IC50: > 10 nM

## Cc1nc(C)c(C(c2ccccc2C#N)C(C)c2nc(C(=O)Nc3cnoc3)c(O)c(=O)n2C)nc1C (single isomer, unassigned) [Example 122 D2E2]
[1]
  IC50: > 10 nM
[2]
  IC50: > 10 nM

## Cc1ncc(C(c2ccccc2Cl)C(C)c2nc(C(=O)Nc3cnoc3)c(O)c(=O)n2C)nc1C (single isomer, unassigned) [Example 125 D2E2]
[1]
  IC50: > 10 nM
[2]
  IC50: > 10 nM

## CC(c1nc(C(=O)Nc2cnoc2)c(O)c(=O)n1C)C(c1ccccc1C#N)c1nnnn1C (single isomer, unassigned) [Example 131 D1E2]
[1]
  IC50: > 10 nM
[2]
  IC50: > 10 nM

## CC(c1nc(C(=O)Nc2cnoc2)c(O)c(=O)n1C)C(c1ccccc1C#N)c1nnnn1C (single isomer, unassigned) [Example 131 D2E2]
[1]
  IC50: > 10 nM
[2]
  IC50: > 10 nM

## CC(c1nc(C(=O)Nc2cnoc2)c(O)c(=O)n1C)C(c1cnn(C(F)(F)F)c1)c1ccccc1C#N (single isomer, unassigned) [Example 151 D2E2]
[1]
  IC50: > 10 nM
[2]
  IC50: > 10 nM

## CC(=O)N(C)c1nn(C)cc1C(c1ccccc1C#N)C(C)c1nc(C(=O)Nc2cnoc2)c(O)c(=O)n1C (single isomer, unassigned) [Example 153 D1E1]
[1]
  IC50: > 10 nM
[2]
  IC50: > 10 nM
